From the NIST ThermoML archive (doi:10.1016/j.jct.2008.04.010)
Where “and” joins values, the source holds several entries; their conditions need not be identical. Equal values may be shown once.

Experiments:
[1] = for vapor or sublimation pressure: Calculated from knudsen effusion weight loss; for Normal melting temperature: DTA
[2] = Molar enthalpy of transition or fusion; conditions: Crystal; DSC
[3] = molar enthalpy of vaporization or sublimation; conditions: 298.15 K; Liquid; Calvet microcalorimetry

c1ccc(-c2cccc(-c3ccc4ccccc4c3)c2)cc1 [2-(biphen-3-yl)naphthalene]
[1], Liquid
Conditions | vapor or sublimation pressure
381.08 K | 8.1e-05 kPa and 8.3e-05 kPa
385.17 K | 0.000117 kPa
389.15 K | 0.000174 kPa
389.17 K | 0.000177 kPa
393.18 K | 0.000216 kPa and 0.000218 kPa and 0.000223 kPa
397.15 K | 0.000323 kPa and 0.000303 kPa
397.17 K | 0.000315 kPa
401.14 K | 0.00041 kPa and 0.000429 kPa and 0.000427 kPa
405.18 K | 0.000546 kPa and 0.000585 kPa and 0.000588 kPa
409.08 K | 0.000767 kPa and 0.000773 kPa and 0.00079 kPa
413.17 K | 0.001087 kPa and 0.001156 kPa

Conditions | Normal melting temperature [°C]
[1], Crystal | 73.2

Conditions | Molar enthalpy of transition or fusion [kJ/mol]
[2] | 18.5

c1ccc(-c2ccc3ccccc3c2)cc1 [2-phenylnaphthalene]
[1], Crystal
Conditions | vapor or sublimation pressure
333.11 K | 0.000132 kPa and 0.000137 kPa
335.63 K | 0.000185 kPa and 0.000183 kPa and 0.00018 kPa
338.2 K | 0.000244 kPa and 0.000239 kPa
340.61 K | 0.00032 kPa and 0.000316 kPa and 0.000318 kPa
343.13 K | 0.00042 kPa and 0.000421 kPa and 0.000419 kPa
345.69 K | 0.000558 kPa and 0.000553 kPa and 0.000544 kPa
348.12 K | 0.000729 kPa and 0.000707 kPa and 0.000716 kPa
350.62 K | 0.000939 kPa and 0.000941 kPa and 0.000909 kPa
353.19 K | 0.001212 kPa and 0.001224 kPa and 0.001185 kPa

Conditions | Normal melting temperature [°C]
[1], Crystal | 100.4

Conditions | Molar enthalpy of transition or fusion [kJ/mol]
[2] | 17.9

c1ccc(-c2ccc(-c3ccc4ccccc4c3)cc2)cc1 [2-(biphen-4-yl)naphthalene]
[1], Crystal
Conditions | vapor or sublimation pressure
405.17 K | 6.2e-05 kPa and 6.3e-05 kPa
409.14 K | 9.1e-05 kPa and 8.8e-05 kPa and 8.9e-05 kPa
411.18 K | 0.000111 kPa and 0.000112 kPa
413.18 K | 0.000131 kPa and 0.000135 kPa and 0.000134 kPa
415.14 K | 0.000164 kPa and 0.00016 kPa and 0.000161 kPa
417.19 K | 0.000197 kPa
419.09 K | 0.000237 kPa and 0.000235 kPa and 0.00023 kPa
421.14 K | 0.000283 kPa and 0.00028 kPa
423.09 K | 0.000339 kPa and 0.000342 kPa and 0.000336 kPa
425.19 K | 0.000418 kPa and 0.000424 kPa and 0.000416 kPa
429.21 K | 0.000609 kPa and 0.000597 kPa
433.15 K | 0.000855 kPa and 0.000839 kPa
437.19 K | 0.001171 kPa and 0.001222 kPa and 0.001194 kPa

Conditions | Normal melting temperature [°C]
[1], Crystal | 216.4

Conditions | Molar enthalpy of transition or fusion [kJ/mol]
[2] | 25.1

c1ccc(-c2cccc3ccccc23)cc1 [1-phenylnaphthalene]
Conditions | molar enthalpy [kJ/mol]
[3] | 81
